# Data reported in US8471005B2 (Cephalon, Inc., priority 2008, dated 2013).
# Read-outs that look alike come from different tables or passages of the source.
# Legend:
# ALK = molecular target: T1, ALK (Homo sapiens, UniProt Q9UM73); experiment: ALK Kinase Assay (ELISA/TRF, PLC-γ substrate); format: biochemical; details: read-out: ALK Potency
# T1 construct: host or cells: baculovirus expression system
# Method in brief: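 PLC-γ substrate coated at 10 μg/mL in TBS; reaction started with 30 ng/ml ALK, run 15 min at 37° C. Phosphoproduct detected by TRF with Eu-N1-labeled PT66 anti-phosphotyrosine antibody. IC50 from sigmoidal variable-slope fit of percent inhibition versus log concentration.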
# JAK2 = molecular target: T2, JAK2 (Homo sapiens, UniProt O60674); experiment: Recombinant Human JAK2 Kinase Assay (TRF); format: biochemical; details: read-out: JAK2 Potency
# T2 construct: host or cells: baculovirus expression system
# Method in brief: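 Baculovirus-expressed JAK2 (15 ng/ml) phosphorylated a biotinylated 15-mer peptide captured on Neutravidin, in 20 mM HEPES pH 7.2, 0.2 μM ATP, 1 mM MnCl2, 0.1% BSA, 2.5% DMSO final, 20 min at room temperature. Phosphoproduct detected by time-resolved fluorescence with Eu-N1-labelled PY100 antibody.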
# [1] = ALK kinase inhibition, 1 μM ATP
# [2] = JAK2 kinase inhibition, 0.2 μM ATP
# T2 sequence (O60674 whole entry): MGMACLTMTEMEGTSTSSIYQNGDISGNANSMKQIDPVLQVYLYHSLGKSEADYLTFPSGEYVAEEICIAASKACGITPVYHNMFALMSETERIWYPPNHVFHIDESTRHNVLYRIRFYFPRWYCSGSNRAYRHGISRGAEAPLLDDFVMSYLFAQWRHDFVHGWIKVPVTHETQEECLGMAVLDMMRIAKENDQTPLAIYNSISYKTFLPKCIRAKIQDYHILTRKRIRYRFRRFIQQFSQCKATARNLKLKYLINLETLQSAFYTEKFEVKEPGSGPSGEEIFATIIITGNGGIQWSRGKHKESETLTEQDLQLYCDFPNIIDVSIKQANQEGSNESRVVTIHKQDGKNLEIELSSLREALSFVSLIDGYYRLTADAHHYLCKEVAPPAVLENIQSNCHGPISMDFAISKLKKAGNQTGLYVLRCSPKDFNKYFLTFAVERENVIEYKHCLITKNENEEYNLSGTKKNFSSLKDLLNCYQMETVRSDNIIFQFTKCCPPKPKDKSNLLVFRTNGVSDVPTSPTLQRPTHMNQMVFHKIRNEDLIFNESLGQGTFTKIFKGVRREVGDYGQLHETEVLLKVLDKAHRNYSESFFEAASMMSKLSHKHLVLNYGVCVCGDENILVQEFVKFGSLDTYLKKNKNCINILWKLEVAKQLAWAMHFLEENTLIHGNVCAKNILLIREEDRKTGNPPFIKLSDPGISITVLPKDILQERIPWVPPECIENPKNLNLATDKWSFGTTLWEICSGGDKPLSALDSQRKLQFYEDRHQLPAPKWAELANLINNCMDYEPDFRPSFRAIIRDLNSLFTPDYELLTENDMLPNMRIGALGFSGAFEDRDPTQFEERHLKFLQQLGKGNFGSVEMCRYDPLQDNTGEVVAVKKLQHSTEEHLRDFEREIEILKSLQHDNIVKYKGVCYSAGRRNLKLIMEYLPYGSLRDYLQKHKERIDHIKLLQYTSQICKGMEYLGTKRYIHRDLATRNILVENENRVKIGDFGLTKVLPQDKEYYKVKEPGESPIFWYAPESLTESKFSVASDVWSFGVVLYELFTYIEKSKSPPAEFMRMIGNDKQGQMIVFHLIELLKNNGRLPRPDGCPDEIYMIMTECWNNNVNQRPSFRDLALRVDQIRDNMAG
# T1 sequence (Q9UM73 19-1620): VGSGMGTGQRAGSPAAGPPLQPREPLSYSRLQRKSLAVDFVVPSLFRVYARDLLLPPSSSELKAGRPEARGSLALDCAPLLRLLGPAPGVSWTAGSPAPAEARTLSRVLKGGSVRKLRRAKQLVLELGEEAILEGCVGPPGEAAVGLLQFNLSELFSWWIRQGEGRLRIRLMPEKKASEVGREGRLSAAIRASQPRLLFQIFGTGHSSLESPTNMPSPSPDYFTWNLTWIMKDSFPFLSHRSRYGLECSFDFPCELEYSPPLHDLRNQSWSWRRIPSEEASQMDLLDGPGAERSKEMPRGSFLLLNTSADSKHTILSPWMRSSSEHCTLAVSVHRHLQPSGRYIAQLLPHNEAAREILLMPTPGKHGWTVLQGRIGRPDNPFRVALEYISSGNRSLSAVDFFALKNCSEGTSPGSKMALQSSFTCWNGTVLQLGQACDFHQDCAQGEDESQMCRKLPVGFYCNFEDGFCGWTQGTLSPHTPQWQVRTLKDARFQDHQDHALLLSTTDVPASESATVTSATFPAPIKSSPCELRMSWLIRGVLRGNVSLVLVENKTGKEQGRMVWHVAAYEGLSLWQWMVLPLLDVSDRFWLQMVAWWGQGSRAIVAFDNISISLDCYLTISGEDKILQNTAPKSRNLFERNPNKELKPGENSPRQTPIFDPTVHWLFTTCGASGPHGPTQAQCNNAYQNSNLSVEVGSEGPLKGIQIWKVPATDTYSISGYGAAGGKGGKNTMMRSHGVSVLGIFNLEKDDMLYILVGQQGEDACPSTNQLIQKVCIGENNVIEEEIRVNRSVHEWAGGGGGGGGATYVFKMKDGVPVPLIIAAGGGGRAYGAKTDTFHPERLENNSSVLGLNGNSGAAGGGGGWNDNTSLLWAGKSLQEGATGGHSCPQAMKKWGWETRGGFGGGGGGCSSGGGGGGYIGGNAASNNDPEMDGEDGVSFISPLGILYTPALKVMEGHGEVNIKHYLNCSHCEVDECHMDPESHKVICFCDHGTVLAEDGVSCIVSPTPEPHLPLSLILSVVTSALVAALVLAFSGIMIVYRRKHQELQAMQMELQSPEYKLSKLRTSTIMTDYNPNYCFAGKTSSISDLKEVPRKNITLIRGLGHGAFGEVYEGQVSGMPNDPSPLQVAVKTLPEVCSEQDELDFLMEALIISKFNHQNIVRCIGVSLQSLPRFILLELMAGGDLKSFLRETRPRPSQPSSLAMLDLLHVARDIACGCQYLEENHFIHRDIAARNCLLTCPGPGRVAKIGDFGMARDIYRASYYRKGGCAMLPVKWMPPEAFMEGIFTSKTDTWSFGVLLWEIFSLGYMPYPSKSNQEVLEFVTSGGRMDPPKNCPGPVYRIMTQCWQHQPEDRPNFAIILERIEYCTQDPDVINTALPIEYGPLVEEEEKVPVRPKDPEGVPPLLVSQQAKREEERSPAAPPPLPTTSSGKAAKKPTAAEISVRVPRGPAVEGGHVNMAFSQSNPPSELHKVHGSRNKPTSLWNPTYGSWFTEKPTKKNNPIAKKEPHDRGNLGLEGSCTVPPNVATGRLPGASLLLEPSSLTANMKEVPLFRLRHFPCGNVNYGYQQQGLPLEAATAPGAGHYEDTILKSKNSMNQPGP
IC50 (ALK; [1]) [nM],IC50 (JAK2; [2]) [nM],IC50 (ALK; ALK Kinase Inhibition) [nM],IC50 (JAK2; JAK2 Kinase Inhibition) [nM],Compound
< 100,< 100,,,"COc1cc(N2CCC(N3CCCN(C)CC3)CC2)ccc1Nc1ncc2ccc(-c3ccccc3OC)n2n1 [Example 781, {2-Methoxy-4-[4-(4-methyl-[1,4]diazepan-1-yl)-piperidin-1-yl]-phenyl}-[7-(2-methoxy-phenyl)-pyrrolo[2,1-f][1,2,4]triazin-2-yl]-amine]"
< 100,100 to 1000,,,"COc1cc(CN2CCN(C[C@H](C)O)CC2)ccc1Nc1ncc2ccc(-c3ccccc3OC)n2n1 [Example 1226, (S)-1-(4-{3-Methoxy-4-[7-(2-methoxy-phenyl)-pyrrolo[2,1-f][1,2,4]triazin-2-ylamino]-benzyl}-piperazin-1-yl)-propan-2-ol]"
,,1000 to 10000,< 100,"c1cc(-c2ccc3cnc(Nc4ccc(N5CCOCC5)cc4)nn23)ccn1 [Example 4, (4-Morpholin-4-yl-phenyl)-(7-pyridin-4-yl-pyrrolo[2,1-f][1,2,4]triazin-2-yl)-amine]"
1000 to 10000,< 100,,,"CC(C)(C)NS(=O)(=O)c1cccc(-c2ccc3cnc(Nc4ccc5scnc5c4)nn23)c1 [Example 575, 3-[2-(Benzothiazol-5-ylamino)-pyrrolo[2,1-f][1,2,4]triazin-7-yl]-N-tert-butyl-benzenesulfonamide]"
,,100 to 1000,< 100,"CN1CCN(c2ccc(Nc3ncc4c(Br)cc(-c5ccccc5)n4n3)cc2)CC1 [Example 100, (5-Bromo-7-phenyl-pyrrolo[2,1-f][1,2,4]triazin-2-yl)-[4-(4-methyl-piperazin-1-yl)-phenyl]-amine]"
1000 to 10000,< 100,,,"Cn1cc(-c2ccc3cnc(Nc4ccc5c(c4)NC(=O)C5)nn23)cn1 [Example 646, 6-[7-(1-Methyl-1H-pyrazol-4-yl)-pyrrolo[2,1-f][1,2,4]triazin-2-ylamino]-1,3-dihydro-indol-2-one]"
< 100,1000 to 10000,,,"COc1ccc(-c2ccc3cnc(Nc4ccc(C5CCN(CC(N)=O)CC5)cc4OC)nn23)c(OC)c1 [Example 745, 2-(4-{4-[7-(2,4-Dimethoxy-phenyl)-pyrrolo[2,1-f][1,2,4]triazin-2-ylamino]-3-methoxy-phenyl}-piperidin-1-yl)-acetamide]"
,,< 100,< 100,"COc1ccccc1-c1cc(C)c2cnc(Nc3ccc(N4CCN(C)CC4)cc3)nn12 [Example 105, [7-(2-Methoxy-phenyl)-5-methyl-pyrrolo[2,1-f][1,2,4]triazin-2-yl]-[4-(4-methyl-piperazin-1-yl)-phenyl]-amine]"
100 to 1000,< 100,,,"CS(=O)(=O)c1cccc(-c2ccc3cnc(Nc4ccc5c(c4)CCC(N4CCOCC4)CC5)nn23)c1 (stereo not shown) [Example 611, [7-(3-Methanesulfonyl-phenyl)-pyrrolo[2,1-f][1,2,4]triazin-2-yl]-(7-morpholin-4-yl-6,7,8,9-tetrahydro-5H-benzocyclohepten-2-yl)-amine]"
1000 to 10000,< 100,,,"CS(=O)(=O)Nc1ccccc1-c1ccc2cnc(Nc3cccc(OCCN4CCOCC4)c3)nn12 [Example 1002, N-(2-{2-[3-(2-Morpholin-4-yl-ethoxy)-phenylamino]-pyrrolo[2,1-f][1,2,4]triazin-7-yl}-phenyl)-methanesulfonamide]"
,,100 to 1000,< 100,"c1ccc(-c2ccc3cnc(Nc4ccc(N5CCOCC5)cc4)nn23)cc1 [Example 2, (4-Morpholin-4-yl-phenyl)-(7-phenyl-pyrrolo[2,1-f][1,2,4]triazin-2-yl)amine]"
100 to 1000,< 100,,,"COc1ccccc1-c1ccc2cnc(Nc3ccc(C4CCN(C(=O)OC(C)(C)C)C4)cc3)nn12 (stereo not shown) [Example 1008, 3-{4-[7-(2-Methoxy-phenyl)-pyrrolo[2,1-f][1,2,4]triazin-2-ylamino]-phenyl}-pyrrolidine-1-carboxylic acid tert-butyl ester]"
,,< 100,1000 to 10000,"CSc1cc(N2CCN(C[C@H](C)O)CC2)c(F)cc1Nc1ncc2ccc(-c3ccccc3N(C)S(C)(=O)=O)n2n1 [Example 1483, N-[2-(2-{5-Fluoro-4-[4-((S)-2-hydroxy-propyl)-piperazin-1-yl]-2-methylsulfanyl-phenylamino}-pyrrolo[2,1-f][1,2,4]triazin-7-yl)-phenyl]-N-methyl-methanesulfonamide]"
,,< 100,< 100,"COc1ccc(Cl)cc1-c1ccc2cnc(Nc3ccc(N4CCN(CC(C)(C)O)CC4)cc3)nn12 [Example 222, 1-(4-{4-[7-(5-Chloro-2-methoxy-phenyl)-pyrrolo[2,1-f][1,2,4]triazin-2-ylamino]-phenyl}-piperazin-1-yl)-2-methyl-propan-2-ol]"
< 100,< 100,,,COc1ccccc1-c1c(C)c(C)c2cnc(Nc3ccc(N4CCN(C)CC4)cc3)nn12 [Example 1107]
< 100,< 100,,,"COc1cc(Nc2ncc3ccc(-c4cccc(S(=O)(=O)NC(C)(C)C)c4)n3n2)ccc1C1CCN(CC(N)=O)CC1 [Example 924, 2-(4-{4-[7-(3-tert-Butylsulfamoyl-phenyl)-pyrrolo[2,1-f][1,2,4]triazin-2-ylamino]-2-methoxy-phenyl}-piperidin-1-yl)-acetamide]"
100 to 1000,< 100,,,"[7-(2-Methoxy-phenyl)-pyrrolo[2,1-f][1,2,4]triazin-2-yl]-(2-methyl-1,2,3,4-tetrahydro-isoquinolin-7-yl)-amine [Example 984]"
,,< 100,< 100,"Cc1cc(Nc2ncc3ccc(-c4cccc(Cl)c4)n3n2)ccc1N1CCN(C)CC1 [Example 69, [7-(3-Chloro-phenyl)-pyrrolo[2,1-f][1,2,4]triazin-2-yl]-[3-methyl-4-(4-methyl-piperazin-1-yl)-phenyl]-amine]"
< 100,< 100,,,"COc1cc(OC2CCN(C)CC2)ccc1Nc1ncc2ccc(-c3ccccc3OC)n2n1 [Example 998, [2-Methoxy-4-(1-methyl-piperidin-4-yloxy)-phenyl]-[7-(2-methoxy-phenyl)-pyrrolo[2,1-f][1,2,4]triazin-2-yl]-amine]"
,,< 100,100 to 1000,"COc1cc(N2CCC[C@H](CN3CCN(C)CC3)C2)ccc1Nc1ncc2ccc(-c3ccccc3N(C)S(C)(=O)=O)n2n1 [Example 465, N-[2-(2-{2-Methoxy-4-[(R)-3-(4-methyl-piperazin-1-ylmethyl)-piperidin-1-yl]-phenylamino}-pyrrolo[2,1-f][1,2,4]triazin-7-yl)-phenyl]-N-methyl-methanesulfonamide]"
100 to 1000,< 100,,,"CN1CCN(c2ccc(Nc3ncc4ccc(NCc5cccnc5)n4n3)cc2)CC1 [Example 1164, N(2)-[4-(4-Methyl-piperazin-1-yl)-phenyl]-N(7)-pyridin-3-ylmethyl-pyrrolo[2,1-f][1,2,4]triazine-2,7-diamine]"
< 100,< 100,,,COc1ccc(Cl)cc1-c1ccc2cnc(Nc3ccc(C4CCN(CC(N)=O)CC4)cc3)nn12 [Example 1024]
< 100,100 to 1000,,,"COc1cc2c(cc1Nc1ncc3ccc(-c4ccccc4N(C)S(C)(=O)=O)n3n1)CN(CC(N)=O)C2 [Example 869, 2-(5-{7-[2-(Methanesulfonyl-methyl-amino)-phenyl]-pyrrolo[2,1-f][1,2,4]triazin-2-ylamino}-6-methoxy-1,3-dihydro-isoindol-2-yl)-acetamide]"
100 to 1000,< 100,,,"CS(=O)(=O)Nc1cccc(-c2ccc3cnc(Nc4ccc(C5CCN(CC(N)=O)CC5)cc4)nn23)c1 [Example 956, 2-(4-{4-[7-(3-Methanesulfonylamino-phenyl)-pyrrolo[2,1-f][1,2,4]triazin-2-ylamino]-phenyl}-piperidin-1-yl)-acetamide]"
,,< 100,100 to 1000,"COc1cc(N2CCC[C@@H](C(=O)N3CCN(C)CC3)C2)ccc1Nc1ncc2ccc(-c3ccccc3N(C)S(C)(=O)=O)n2n1 [Example 462, N-[2-(2-{2-Methoxy-4-[(R)-3-(4-methyl-piperazine-1-carbonyl)-piperidin-1-yl]-phenylamino}-pyrrolo[2,1-f][1,2,4]triazin-7-yl)-phenyl]-N-methyl-methanesulfonamide]"
1000 to 10000,< 100,,,"COc1ccc(-c2ccc3cnc(Nc4ccc5c(c4)COCCN5C)nn23)cn1 [Example 637, [7-(6-Methoxy-pyridin-3-yl)-pyrrolo[2,1-f][1,2,4]triazin-2-yl]-(1-methyl-1,2,3,5-tetrahydro-benzo[e][1,4]oxazepin-7-yl)-amine]"
,,100 to 1000,< 100,"CN(c1ccccc1-c1ccc2cnc(Nc3cccc(N4CCOCC4)c3)nn12)S(C)(=O)=O [Example 410, N-Methyl-N-{2-[2-(3-morpholin-4-yl-phenylamino)-pyrrolo[2,1-f][1,2,4]triazin-7-yl]-phenyl}-methanesulfonamide]"
1000 to 10000,< 100,,,"N#CCCn1cccc1-c1ccc2cnc(Nc3cccc(N4CCCC4=O)c3)nn12 [Example 1296, 3-(2-{2-[3-(2-oxo-pyrrolidin-1-yl)-phenylamino]-pyrrolo[2,1-f][1,2,4]triazin-7-yl}-pyrrol-1-yl)-propionitrile]"
1000 to 10000,< 100,,,"CC(C)(C)NS(=O)(=O)c1cccc(-c2ccc3cnc(Nc4ccc5nc(CO)[nH]c5c4)nn23)c1 [Example 1066, N-tert-Butyl-3-[2-(2-hydroxymethyl-3H-benzoimidazol-5-ylamino)-pyrrolo[2,1-f][1,2,4]triazin-7-yl]-benzenesulfonamide]"
